In patent US20240207221A1, “TREATMENT OF HYPERAMMONEMIA” (BIOCODEX, priority 2021, published 2024):
Where two headings read alike, the source gives them in different places.

Key:
Assay type in all cases: in vivo
[1] = tested on: methionine sulfoximine (MSO)-induced convulsions
Experimental: (§1) Appl. Neurobiol. 11: 129-139, as follows.
(§2) Male CBA mice (Janvier) weighing between 23 and 27 grams are used after acclimatization for at least 4 days in the animal house (t°=22±2° C.; housing conditions are as follows: SAFE “A04” food; drinking water: tap water; nycthemeral cycle: 12 h/12 h (light: 7 h/19 h-dark: 19 h/7 h)).
On reception, mice are grouped in batches of 8 to 10 in 1500 U cages (floor area 1500 cm2) with bedding and sizzle dry (SDS) enrichment, in line with the ethical recommendations of European Parliament Directive 2010/63/EU (Sep. 22, 2010).
(§3) On test day, mice are weighed, marked and placed in individual cages. At t ═O minutes, MSO (0.1 mL/10 g) is administered intraperitoneally, and the mice are carefully observed for 8 hours.
The parameters evaluated are the general condition of the animals, according to the Irwin grid (Irwin 1968), the number of convulsions, their onset times and mortality. Animals are euthanized as soon as limit points are reached, or at the end of the 8-hour observation period, according to the ANI07 procedure approved by the Ethics Committee.
(§4) Stiripentol (0.1 mL/10 g) is administered intraperitoneally at different times with respect to MSO.
Stiripentol (batch 176) was suspended in 5% (v/v) Tween 80 and 0.9% NaCl.
Results are expressed as the mean value±MSE. The statistical tests used are: • Fisher's exact test for percentages of convulsions and mortality, to determine a significant difference between groups at the 5% threshold, • A one-factor analysis of variance for the assays, to determine whether the pharmacological effect observed is significant at the 5% level (SigmaPlot 3.1 software).
Appl. Neurobiol. 11: 129-139.

[2] = tested on: methionine sulfoximine (MSO)-induced hyperammonemia; settings: for ammonemia: mean ± MSE
Experimental: as §1, §2, §3, §4
Results are expressed as the mean value±MSE.

ammonia = test: Specific effect of stiripentol on ammonemia (without MSO), ABCAM ammonia assay kit; settings: stiripentol 300 mg/kg intraperitoneally without methionine sulfoximine, mice
Experimental: Blood is collected under isoflurane anesthesia by cardiac puncture (0.5 to 1.0 mL per mouse) to determine ammonia levels. In the case of brain and blood sampling, the mouse is rapidly sacrificed by decapitation: the brain is removed and frozen in liquid nitrogen. The liver can then be removed and rapidly frozen in liquid nitrogen. Samples are stored at −80° C.
Stiripentol (0.1 mL/10 g) is administered intraperitoneally at different times with respect to MSO. […]
Ammonia is determined colorimetrically using a microplate reader (Dynex, model MRX), and an ABCAM kit (ref AB83360, ammonia assay kit) containing several reagents. This kit enables quantitative enzymatic determination of ammonium present in the samples. During the assay, ammonium is converted to a product that reacts with the OxiRed probe for quantification at 570 nm using a microplate reader. […] The kit, stored at −20° C., includes the following components: • Ammonia assay buffer (25 mL): ready to use, bring to room temperature before use; • OxiRed probe (200 μL): ready to use, warm to 37° ° C. to thaw DMSO; • Developer (1 vial): reconstitute with 220 μL of Ammonia assay buffer; • enzyme Mix (1 vial): reconstitute with 220 μL of Ammonia assay buffer; • Converting Enzyme (1 vial): reconstitute with 220 μl of Ammonia assay buffer, • 10 mM NH4Cl standard (100 μL): ready to use, keep on ice during use. […]

[3] = 300 mg/kg stiripentol intraperitoneally 30 minutes prior to 50 mg/kg MSO
[4] = 300 mg/kg stiripentol intraperitoneally just prior to 50 mg/kg MSO
[5] = stiripentol 300 mg/kg intraperitoneally, mice (conclusion)

SMILES: CC(C)(C)C(O)/C=C/c1ccc2c(c1)OCO2 (stereo not drawn) [stiripentol]
- convulsion rate [1, 3]: 45%
- mortality rate [1, 3]: 25%
- convulsion rate [1, 4]: 50%
- mortality rate [1, 4]: 25%
- effect on methionine sulfoximine-induced convulsions and mortality [1, 5]: significantly reduces
- ammonemia ([2]; 300 mg/kg stiripentol 30 minutes prior to 50 mg/kg MSO (FIG. 1)): 448 ± 65 µM
- reduction of hyperammonemia ([2]; 300 mg/kg stiripentol 30 minutes prior to 50 mg/kg MSO, compared with the MSO-only group): 41%
- reduction of hyperammonemia ([2]; 300 mg/kg stiripentol just prior to 50 mg/kg MSO, versus MSO only): 32%
- ammonemia ([2]; 300 mg/kg stiripentol just prior to 50 mg/kg MSO): 417 ± 51 µM
- effect on MSO-induced hyperammonemia [2, 5]: significantly reduces
- effect on ammonemia compared with the control group (ammonia): did not alter ammonemia
- ammonemia (ammonia; plasma, mean ± MSE): 176 ± 14 µM
